How the values were obtained:
[1] = test system: N2a-mLRP4-Tless cells; test: FAM-Aβ42 uptake in LRP1 endocytosis-deficient cells, FACS; type: cell-based, mouse; settings: 500 nM, 48 h, pronase-treated and untreated cells
Description: To determine whether the endocytic function of LRP1 is required for Aβ42 internalization and accumulation, we first analyzed the effect of clathrin knockdown on the uptake of FAM-Aβ42 in N2a-mLRP4 cells. We decreased the expression of clathrin heavy chain by lentiviral-mediated delivery of small hairpin interfering RNA (shRNA) in N2a-mLRP4 cells and analyzed cell surface levels of mLRP4 by FACS. Lentiviral-mediated knockdown of clathrin heavy chain substantially decreases the protein levels of clathrin heavy chain and evokes a twofold-increase in the levels of cell surface mLRP4 in N2a cells (Fig. 4A), consistent with an impairment of clathrin-mediated endocytosis of this LRP1 minireceptor. […] As a control for specificity, we analyzed the uptake of a FAM-Aβ42 peptide that contained the same amino acid composition but in a scrambled sequence. […] To further confirm this, we specifically targeted the endocytic function of mLRP4 and analyzed the internalization of FAM-Aβ42 in LRP1 endocytosis-deficient cells. […]
Figure 4 LRP1 endocytosis is required for Aβ42 uptake and accumulation in N2a cells. […] The levels of cell surface and total pools of mLRP4 were determined by flow cytometric analyses with anti-HA antibody in non-permeabilized and saponin-treated cells, respectively. The surface-to-total ratio were calculated and plotted as fold-change to control-infected cells. […]

[2] = test system: N2a-mLRP4 cells; test: Co-localization of internalized FAM-Aβ42 with LysoTracker, confocal microscopy; type: cell-based, mouse
Method: To determine whether internalized Aβ42 is accumulated over time, we performed continuous feeding experiments of FAM-Aβ42 in N2a-pcDNA3 and N2a-mLRP4 cells. The steady-state levels and localization of Aβ42 were determined by flow cytometry and confocal microscopy, respectively (Fig. 2). Cells were incubated with 500 nM FAM-Aβ42 at 37°C for 24, 48 or 72 h and the content of fluorescence per cell was quantified by FACS and presented as a percentage of the levels in N2a-pcDNA3 at each time point (Fig. 2A). […] Therefore, we analyzed the subcellular localization of internalized FAM-Aβ42 by confocal microscopy in N2a cells treated as before and analyzed co-localization with lysosomes. For the visualization of acidic organelles, a brief incubation with LysoTracker Red at the end of the experiment was included (Fig. 2B). After 24 h of incubation, a small amount of cell-associated Aβ42 can be detected in N2a-mLRP4 cells.
Figure 2 Increased accumulation of intracellular Aβ42 within lysosomes in LRP1 minireceptor-expressing cells. A, increased Aβ42 accumulation in LRP1 minireceptor-expressing cells. N2a-mLRP4 and N2a-pcDNA3 cells were treated with 500 nM of FAM-Aβ42 at 37°C for 24, 48 and 72 h, and steady-state levels of intracellular Aβ42 were determined by flow cytometric analyses of pronase-treated cells as described in the Experimental Procedures. […] B, increased co-localization of intracellular Aβ42 and lysosomes in N2a-mLRP4 cells. N2a-pcDNA3 and N2a-mLRP4 cells were grown in glass chamber slides and treated with 500 nM of FAM-Aβ42 at 37°C for 24, 48 and 72 h. Lysosomes were labeled with LysoTracker 30 min before the end of each incubation. Cells were then fixed and analyzed by confocal microscopy.
For the imaging experiments, stable N2a cells were plated into an 8-well chambered coverglass at 16,250 cells/cm^2 with one independent chambered coverglass for each time point, and cells were grown overnight. […] Cells were then fixed and analyzed by a confocal laser scanning microscope (Fluoview 500, Olympus) using a 40x objective lens. […]

## FAM-Aβ42: FAM-Aβ42 peptide (23526) from Anaspec; amyloid-β 42 with carboxyfluorescein at the N-terminal region
[1]
  FAM-Aβ42 uptake in N2a-mLRP4-Tless compared to N2a-pcDNA3 cells: similar
[2]; 500 nM FAM-Aβ42, 37°C, 24, 48 and 72 h, N2a-mLRP4, increased over time
  co-localization of intracellular accumulated Aβ42 with LysoTracker: highly co-localized with LysoTracker
[2]; 500 nM FAM-Aβ42, 37°C, 48 and 72 h, both N2a-pcDNA3 and N2a-mLRP4 cells
  localization of Aβ42 into LysoTracker-positive organelles: increased localization
[2]; 500 nM FAM-Aβ42, 37°C, 24 h, 100 nM LysoTracker Red last 30 min, N2a-mLRP4
  localization of cell-associated FAM-Aβ42 into acidic organelles (LysoTracker): does not localize into acidic organelles

— article PMC2912373, “Low-Density Lipoprotein Receptor-Related Protein 1 (LRP1) Mediates Neuronal Aβ42 Uptake and Lysosomal Trafficking” (PLoS ONE, 2010)
